Active and inactive are the calls of the source. The calls are words filed in the database; no cut-off is given here.
Assays:
[1] = target: Transient receptor potential cation channel subfamily A member 1 (Homo sapiens) (UniProt O75762); assay: Antagonist activity at human TRPA1 expressed in HEK293 cells assessed as decrease in flufenamic acid-evoked increase in intracellular calcium level at 100 uM measured for 180 secs with 1 sec interval by Fluo4-AM dye-based fluorescence assay relative to control; format: cell-based
[2] = target: Transient receptor potential cation channel subfamily A member 1 (Homo sapiens) (UniProt O75762); assay: Antagonist activity at human TRPA1 expressed in HEK293 cells assessed as decrease in flufenamic acid-evoked increase in intracellular calcium level at 10 uM measured for 180 secs with 1 sec interval by Fluo4-AM dye-based fluorescence assay relative to control; format: cell-based
[3] = target: Transient receptor potential cation channel subfamily A member 1 (Homo sapiens) (UniProt O75762); assay: Antagonist activity at human TRPA1 expressed in HEK293 cells assessed as decrease in flufenamic acid-evoked increase in intracellular calcium level at 1 uM measured for 180 secs with 1 sec interval by Fluo4-AM dye-based fluorescence assay relative to control; format: cell-based
[4] = target: 3',5'-cyclic-AMP phosphodiesterase 4B (Homo sapiens, UniProt Q07343); assay: Inhibition of recombinant human PDE4B using cAMP as substrate after 10 mins by PDE-Glo Phosphodiesterase Assay
[5] = target: High affinity 3',5'-cyclic-AMP phosphodiesterase 7A (Homo sapiens, UniProt Q13946); assay: Inhibition of recombinant human PDE7A using cAMP as substrate after 10 mins by PDE-Glo Phosphodiesterase Assay
Rattus norvegicus [6] = assay: Antiinflammatory activity in Wistar rat assessed as inhibition of LPS-induced TNF-alpha level at 50 mg/kg, ip measured at 1 hr post dose by ELISA relative to control; format: functional
Rattus norvegicus [7] = assay: Antiinflammatory activity in Wistar rat assessed as inhibition of LPS-induced TNF-alpha level at 50 mg/kg, ip measured at 1.5 hrs post dose by ELISA relative to control; format: functional
Rattus norvegicus [8] = assay: Antiinflammatory activity in Wistar rat assessed as inhibition of LPS-induced TNF-alpha level at 50 mg/kg, ip measured at 2 hrs post dose by ELISA relative to control; format: functional
[9] = Plasma concentration in Wistar rat model of LPS-induced inflammation at 50 mg/kg, ip measured at 1 hr post dose by HPLC method; format: ADME, organism-based
[10] = Plasma concentration in Wistar rat model of LPS-induced inflammation at 50 mg/kg, ip measured at 1.5 hrs post dose by HPLC method; format: ADME, organism-based
[11] = Plasma concentration in Wistar rat model of LPS-induced inflammation at 50 mg/kg, ip measured at 2 hrs post dose by HPLC method; format: ADME, organism-based
Mus musculus [12] = assay: Antiinflammatory activity in formalin-induced nociception Swiss CD-1 mouse model assessed as time spent on licking or biting formalin injected right hind paw during neurogenic phase at 10 mg/kg, ip measured during phase 1 (reference value: 33 +/- 1.45 sec); format: functional
Mus musculus [13] = assay: Antiinflammatory activity in formalin-induced nociception Swiss CD-1 mouse model assessed as time spent on licking or biting formalin injected right hind paw during neurogenic phase at 5 mg/kg, ip measured during phase 1 (reference value: 33 +/- 1.45 sec); format: functional
Mus musculus [14] = assay: Antiinflammatory activity in formalin-induced nociception Swiss CD-1 mouse model assessed as time spent on licking or biting formalin injected right hind paw during neurogenic phase at 2.5 mg/kg, ip measured during phase 1 (reference value: 33 +/- 1.45 sec); format: functional
Mus musculus [15] = assay: Antiinflammatory activity in formalin-induced nociception Swiss CD-1 mouse model assessed as time spent on licking or biting formalin injected right hind paw […] at 5 mg/kg, ip measured during phase 2 (reference value: 83.63 +/- 12.98 sec); format: functional
Mus musculus [16] = assay: Antiinflammatory activity in formalin-induced nociception Swiss CD-1 mouse model assessed as time spent on licking or biting formalin injected right hind paw during […] phase at 2.5 mg/kg, ip measured during phase 2 (reference value: 83.63 +/- 12.98 sec); format: functional
Mus musculus [17] = assay: Antiinflammatory activity in formalin-induced nociception ip dosed Swiss CD-1 mouse model assessed as time spent on licking or biting formalin injected right hind paw […] measured during phase 2; format: functional; details: Swiss CD-1, ip
Mus musculus [18] = assay: Potency index, ratio of ED50 for HC-030031 to test compound ED50 for formalin-induced nociception ip dosed Swiss CD-1 mouse model assessed as time spent on licking or biting formalin injected right hind paw […] measured during phase 2; format: functional
Rattus norvegicus [19] = assay: Anti-inflammatory activity in Wistar rat assessed as inhibition of carrageenan-induced paw edema at 20 mg/kg, ip measured at 1 hr post dose relative to control; format: functional
Rattus norvegicus [20] = assay: Anti-inflammatory activity in Wistar rat assessed as inhibition of carrageenan-induced paw edema at 20 mg/kg, ip measured at 2 hrs post dose relative to control; format: functional
Rattus norvegicus [21] = assay: Anti-inflammatory activity in Wistar rat assessed as inhibition of carrageenan-induced paw edema at 20 mg/kg, ip measured at 3 hrs post dose relative to control; format: functional
Rattus norvegicus [22] = assay: Antiallodynic activity in Wistar rat assessed as reduction in oxaliplatin-induced neuropathic pain in early phase by measuring paw withdrawal force at 10 mg/kg, ip measured after 60 mins by Von Frey test; format: functional, organism-based
Rattus norvegicus [23] = assay: Antiallodynic activity in Wistar rat assessed as reduction in oxaliplatin-induced neuropathic pain in late phase by measuring paw withdrawal latency time at 1 to 10 mg/kg, ip measured after 60 secs by cold plate test; format: functional, organism-based
Rattus norvegicus [24] = assay: Antiallodynic activity in Wistar rat assessed as reduction in oxaliplatin-induced neuropathic pain in early phase by measuring paw withdrawal latency time at 1 to 10 mg/kg, ip measured after 60 secs by cold plate test; format: functional, organism-based
Mus musculus [25] = assay: Antiinflammatory activity in formalin-induced nociception Swiss CD-1 mouse model assessed as time spent on licking or biting formalin injected right hind paw during […] phase at 10 mg/kg, ip measured during phase 2 (reference value: 83.63 +/- 12.98 sec); format: functional
Rattus norvegicus [26] = assay: Antiallodynic activity in Wistar rat assessed as reduction in oxaliplatin-induced neuropathic pain in late phase by measuring paw withdrawal force at 10 mg/kg, ip measured after 60 mins by Von Frey test; format: functional, organism-based
Rattus norvegicus [27] = assay: Antiallodynic activity in Wistar rat assessed as reduction in oxaliplatin-induced neuropathic pain in late phase by measuring paw withdrawal latency time at 1 mg/kg, ip measured after 60 secs by cold plate test; format: functional, organism-based
Rattus norvegicus [28] = assay: Antiinflammatory activity in Wistar rat assessed as inhibition of LPS-induced TNF-alpha level at 50 mg/kg, ip measured at 1 to 2 hrs post dose by ELISA relative to control; format: functional
Mus musculus [29] = assay: Antiinflammatory activity in formalin-induced nociception Swiss CD-1 mouse model assessed as time spent on licking or biting formalin injected right hind paw during neurogenic phase at 10 mg/kg, ip measured during phase 1 (reference value: 75.50 +/- 6.86 sec); format: functional
Mus musculus [30] = assay: Antiinflammatory activity in formalin-induced nociception Swiss CD-1 mouse model assessed as time spent on licking or biting formalin injected right hind paw during neurogenic phase at 5 mg/kg, ip measured during phase 1 (reference value: 75.50 +/- 6.86 sec); format: functional
Mus musculus [31] = assay: Antiinflammatory activity in formalin-induced nociception Swiss CD-1 mouse model assessed as time spent on licking or biting formalin injected right hind paw during neurogenic phase at 2.5 mg/kg, ip measured during phase 1 (reference value: 75.50 +/- 6.86 sec); format: functional
Mus musculus [32] = assay: Antiinflammatory activity in formalin-induced nociception Swiss CD-1 mouse model assessed as time spent on licking or biting formalin injected right hind paw during […] phase at 10 mg/kg, ip measured during phase 2 (reference value: 143.60 sec); format: functional
Mus musculus [33] = assay: Antiinflammatory activity in formalin-induced nociception Swiss CD-1 mouse model assessed as time spent on licking or biting formalin injected right hind paw […] at 5 mg/kg, ip measured during phase 2 (reference value: 143.60 sec); format: functional
Mus musculus [34] = assay: Antiinflammatory activity in formalin-induced nociception Swiss CD-1 mouse model assessed as time spent on licking or biting formalin injected right hind paw during […] phase at 2.5 mg/kg, ip measured during phase 2 (reference value: 143.60 sec); format: functional
Rattus norvegicus [35] = assay: Antiallodynic activity in Wistar rat assessed as reduction in oxaliplatin-induced neuropathic pain in early phase by measuring paw withdrawal force at 5 to 10 mg/kg, ip measured after 60 mins by Von Frey test; format: functional, organism-based
Rattus norvegicus [36] = assay: Antiallodynic activity in Wistar rat assessed as reduction in oxaliplatin-induced neuropathic pain in early phase by measuring paw withdrawal force at 1 mg/kg, ip measured after 60 mins by Von Frey test; format: functional, organism-based
Rattus norvegicus [37] = assay: Antiallodynic activity in Wistar rat assessed as reduction in oxaliplatin-induced neuropathic pain in late phase by measuring paw withdrawal latency time at 5 mg/kg, ip measured after 60 secs by cold plate test; format: functional, organism-based

Chain of 3',5'-cyclic-AMP phosphodiesterase 4B (Q07343 whole entry): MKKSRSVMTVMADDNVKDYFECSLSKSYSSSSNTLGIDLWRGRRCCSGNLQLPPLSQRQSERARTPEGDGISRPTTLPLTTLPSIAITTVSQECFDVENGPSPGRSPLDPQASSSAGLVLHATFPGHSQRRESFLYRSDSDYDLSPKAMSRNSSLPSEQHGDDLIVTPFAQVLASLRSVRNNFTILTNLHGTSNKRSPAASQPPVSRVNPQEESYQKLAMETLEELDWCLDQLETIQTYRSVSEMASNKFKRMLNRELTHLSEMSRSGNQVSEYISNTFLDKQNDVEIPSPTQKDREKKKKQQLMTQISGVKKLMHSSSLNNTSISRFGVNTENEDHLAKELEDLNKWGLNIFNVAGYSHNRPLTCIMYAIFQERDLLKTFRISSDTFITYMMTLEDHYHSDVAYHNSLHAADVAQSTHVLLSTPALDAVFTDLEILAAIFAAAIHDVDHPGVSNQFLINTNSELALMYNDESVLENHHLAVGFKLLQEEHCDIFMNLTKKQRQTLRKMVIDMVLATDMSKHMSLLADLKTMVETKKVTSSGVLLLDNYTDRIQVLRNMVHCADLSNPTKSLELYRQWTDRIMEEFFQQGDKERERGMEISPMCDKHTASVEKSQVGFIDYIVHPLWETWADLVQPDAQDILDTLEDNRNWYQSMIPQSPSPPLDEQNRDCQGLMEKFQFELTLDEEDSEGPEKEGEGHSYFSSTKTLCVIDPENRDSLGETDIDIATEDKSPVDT
Chain of High affinity 3',5'-cyclic-AMP phosphodiesterase 7A (Q13946 whole entry): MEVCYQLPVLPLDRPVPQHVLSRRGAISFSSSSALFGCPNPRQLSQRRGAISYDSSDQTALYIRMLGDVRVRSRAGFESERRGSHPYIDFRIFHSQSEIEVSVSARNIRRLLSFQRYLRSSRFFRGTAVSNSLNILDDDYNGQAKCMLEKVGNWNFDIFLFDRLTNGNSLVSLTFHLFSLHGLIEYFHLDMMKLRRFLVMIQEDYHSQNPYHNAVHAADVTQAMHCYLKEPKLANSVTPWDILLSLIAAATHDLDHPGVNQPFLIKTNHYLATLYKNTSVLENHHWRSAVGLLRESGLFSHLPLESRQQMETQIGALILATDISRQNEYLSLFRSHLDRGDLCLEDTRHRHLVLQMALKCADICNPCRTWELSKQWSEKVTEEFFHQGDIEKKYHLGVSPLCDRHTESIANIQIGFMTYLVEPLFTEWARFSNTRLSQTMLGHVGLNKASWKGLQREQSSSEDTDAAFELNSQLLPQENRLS
Chain of Transient receptor potential cation channel subfamily A member 1 (Homo sapiens) (O75762 whole entry): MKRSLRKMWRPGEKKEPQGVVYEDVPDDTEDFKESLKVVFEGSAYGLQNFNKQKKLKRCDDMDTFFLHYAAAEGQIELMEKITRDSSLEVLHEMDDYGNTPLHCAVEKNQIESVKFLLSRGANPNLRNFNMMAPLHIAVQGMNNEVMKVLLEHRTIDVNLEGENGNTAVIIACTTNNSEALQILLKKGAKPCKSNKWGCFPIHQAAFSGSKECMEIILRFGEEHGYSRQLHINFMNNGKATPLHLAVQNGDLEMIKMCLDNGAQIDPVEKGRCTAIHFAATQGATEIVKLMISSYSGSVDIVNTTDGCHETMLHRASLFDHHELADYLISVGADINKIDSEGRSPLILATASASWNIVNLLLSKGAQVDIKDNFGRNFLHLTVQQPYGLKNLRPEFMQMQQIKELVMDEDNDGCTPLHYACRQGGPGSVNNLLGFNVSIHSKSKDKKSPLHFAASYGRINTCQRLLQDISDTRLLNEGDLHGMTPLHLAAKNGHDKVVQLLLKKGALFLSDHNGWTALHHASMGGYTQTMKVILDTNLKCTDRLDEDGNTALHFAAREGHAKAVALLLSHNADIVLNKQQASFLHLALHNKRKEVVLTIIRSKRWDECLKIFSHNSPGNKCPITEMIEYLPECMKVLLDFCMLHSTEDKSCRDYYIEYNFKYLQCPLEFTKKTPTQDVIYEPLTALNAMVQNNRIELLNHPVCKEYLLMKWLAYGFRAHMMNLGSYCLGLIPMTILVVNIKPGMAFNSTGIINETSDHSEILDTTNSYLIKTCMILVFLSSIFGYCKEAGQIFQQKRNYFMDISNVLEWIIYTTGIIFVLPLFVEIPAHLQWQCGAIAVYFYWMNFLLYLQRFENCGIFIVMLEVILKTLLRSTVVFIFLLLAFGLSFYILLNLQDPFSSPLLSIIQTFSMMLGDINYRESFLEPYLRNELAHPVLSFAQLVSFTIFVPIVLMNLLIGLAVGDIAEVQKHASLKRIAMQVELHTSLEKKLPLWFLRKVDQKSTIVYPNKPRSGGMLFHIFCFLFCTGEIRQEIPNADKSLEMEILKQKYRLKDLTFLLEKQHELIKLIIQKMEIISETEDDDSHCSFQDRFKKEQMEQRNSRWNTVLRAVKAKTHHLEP

SMILES: CCCCOc1nc2c(c(=O)n(C)c(=O)n2C)n1CCCC(=O)Nc1cc(C(C)(C)C)ccc1O
- inhibition [1]: 39%
- inhibition [2]: 7%
- inhibition [3]: 6%
- IC50 [4]: 5.43 µM
- IC50 [5]: 5.07 µM
- inhibition in vivo at 50 mg/kg (Rattus norvegicus [6]): 85.4%
- inhibition in vivo at 50 mg/kg (Rattus norvegicus [7]): 90.2%
- inhibition in vivo at 50 mg/kg (Rattus norvegicus [8]): 92%
- concentration at 1 h [9]: 1980 nM
- concentration at 1.5 h [10]: 740 nM
- concentration at 2 h [11]: 290 nM
- Time (Mus musculus [12]): 21.33 s
- Time (Mus musculus [13]): 25.17 s
- Time (Mus musculus [14]): 32 s
- Time (Mus musculus [15]): 49.17 s
- Time (Mus musculus [16]): 47.67 s
- ED50 (Mus musculus [17]): 3.44 mg/kg
- Ratio ED50 (Mus musculus [18]): 10 - 13
- inhibition in vivo at 20 mg/kg (Rattus norvegicus [19]): 48%
- inhibition in vivo at 20 mg/kg (Rattus norvegicus [20]): 79.7%
- inhibition in vivo at 20 mg/kg (Rattus norvegicus [21]): 33.5%
- Activity (Rattus norvegicus [22]): Active
- Activity (Rattus norvegicus [23]): Active
- Activity (Rattus norvegicus [24]): Active

SMILES: CCOc1nc2c(c(=O)n(C)c(=O)n2C)n1CC(=O)Nc1ccc(C(C)(C)C)cc1
- inhibition [1]: 59%
- inhibition [2]: 47%
- inhibition [3]: 10%
- IC50 [4]: > 200 µM
- IC50 [5]: > 200 µM
- concentration at 1 h [9]: 3750 nM
- concentration at 1.5 h [10]: 2590 nM
- concentration at 2 h [11]: 2250 nM
- Time (Mus musculus [12]): 32.17 s
- Time (Mus musculus [13]): 30.83 s
- Time (Mus musculus [14]): 32 s
- Time (Mus musculus [25]): 9.67 s
- Time (Mus musculus [15]): 16.33 s
- Time (Mus musculus [16]): 46 s
- ED50 (Mus musculus [17]): 2.57 mg/kg
- Ratio ED50 (Mus musculus [18]): 10 - 13
- inhibition in vivo at 20 mg/kg (Rattus norvegicus [19]): 60.5%
- inhibition in vivo at 20 mg/kg (Rattus norvegicus [20]): 54.3%
- inhibition in vivo at 20 mg/kg (Rattus norvegicus [21]): 50.1%
- Activity (Rattus norvegicus [26]): Active
- Activity (Rattus norvegicus [22]): Active
- Activity (Rattus norvegicus [27]): Active
- inhibition (Rattus norvegicus [28]): inactive

SMILES: COc1nc2c(c(=O)n(C)c(=O)n2C)n1CC(=O)Nc1ccc(C(C)(C)C)cc1
- inhibition [1]: 53%
- inhibition [2]: 40%
- inhibition [3]: 40%
- IC50 [4]: > 200 µM
- IC50 [5]: > 200 µM
- concentration at 1 h [9]: 2680 nM
- concentration at 1.5 h [10]: 2330 nM
- concentration at 2 h [11]: 1950 nM
- Time (Mus musculus [29]): 65.17 s
- Time (Mus musculus [30]): 86.33 s
- Time (Mus musculus [31]): 69 s
- Time (Mus musculus [32]): 31.67 s
- Time (Mus musculus [33]): 48 s
- Time (Mus musculus [34]): 72.6 s
- ED50 (Mus musculus [17]): 2.49 mg/kg
- Ratio ED50 (Mus musculus [18]): 10 - 13
- inhibition in vivo at 20 mg/kg (Rattus norvegicus [19]): 37.1%
- inhibition in vivo at 20 mg/kg (Rattus norvegicus [20]): 18.7%
- inhibition in vivo at 20 mg/kg (Rattus norvegicus [21]): 30.6%
- Activity (Rattus norvegicus [35]): Active
- Activity (Rattus norvegicus [26]): Active
- Activity (Rattus norvegicus [36]): inactive
- Activity (Rattus norvegicus [27]): Active
- Activity (Rattus norvegicus [37]): Active
- inhibition in vivo at 50 mg/kg (Rattus norvegicus [28]): 33 to 44%
